Results published in patent US12611380B2, “Solution and method for reducing the virulence of viruses, bacteria, yeasts, or fungus” (priority 2020, dated 2026).
“Also recorded” adds a separate entry of the source. Where two headings read alike, the source gives them in different places.

Legend:
[1] = Solubility of ILCS preparations; type: physicochemical; settings: pH 7-10.5
[2] = system: Candida albicans (ATCC 10231); assay: EPA protocol MB-35-00 hard surface carrier disinfection test; settings: 0.42 M, 1 min
Protocol: (§1) We used EPA protocol MB-35-00 for testing disinfectants against C. auris (US Environmental Protection Agency. 2017, 2020) and C. albicans ATCC 10231, a yeast common in package spoilage of food and cosmetics.
(§2) We tested 5 batches produced with difference sources of isomerized linoleic acid (Test Substances 1-5).
(§3) The EPA test protocol for testing hard surface disinfection of C. auris (AR0381) with antifungal resistance includes an overnight culture of C. auris (AR.0381) shaken at 200 rpm at 30° C. From this culture, 8 mL was harvested by centrifugation, re-suspended in 2-3 mL phosphate-buffered saline (PBS), and mixed with a 3-part soil load including bovine serum albumin (BSA), yeast extract, and mucin. Metal carriers (10 mm) were inoculated (10 μL culture+soil load) and dried in a desiccator under vacuum (˜70 min). The disk surface was coated with the test substance at 0.42 M (50 μL) for up to 10 min. Following incubation, the carriers were transferred to 10 mL neutralization solution (Sabouraud Dextrose Broth [SDB], a common yeast-mold growth media) for subsequent harvesting on membrane filters. The filtered membranes were transferred to Sabouraud Dextrose Emmons Agar (SDEA) plates to culture for 120 hours at 31° C. Controls consisted of PBS (50 μL) applied to inoculated metal disk carriers, subsequently transferred to 10 mL neutralization solution (SDB), diluted serially in PBS, and plated directly to SDEA plates, See FIG. 2.
(§4) We prepared and qualified these per EPA protocol (US Environmental Protection Agency, 2017). • Soil Stocks: We prepared soil stocks with yeast extract powder (Ref RM027) purchased from Himedia, BSA (A2153) purchased from Sigma Life Science, and gastric mucin (cat #HY-B2196/CS-7626) purchased from Mod Chem Express per SOP MB-35-00 (US Environmental Protection Agency, 2017). • Cell Harvesting: We removed cells from the growth culture media using a Micro-Centrifuge obtained from Changzhou Jintan Sanhe Instrument Co., LTD. (Model TGI6-W) at 10,000×g for 10 min in screw-top-cap vials purchased from Heathrow Scientific (Item HS 100600). The optical density of the inoculate was defined at 15-19 OD600 in PBS with the Ultrospec 10 Cell Density Meter from BioChrom (Holliston, MA, USA) prior to dilution in the soil load. Samples were diluted 1:10 in PBS to obtain absorbance readings between 1.5 and 1.9. • Membrane Filtration: Treated yeasts were collected using a combination of the Rocker (Cat #200300-01) and 47 mm PES membranes with a 0.45 micron pore size obtained from Sterlitech (Catalog #PE54547100).

microbial growth = assay: Reduction in microbial growth; type: cell-based; settings: potassium hexadiene at pH 9
[3] = Clinical observation on washing with ILPS; type: in vivo; settings: general cosmetic use
[4] = system: viral illnesses such as pharyngitis and rhinorrhea; assay: ILCS spray or wash for the nasopharynx cavity; type: in vivo; settings: 2-50 mM ILCS spray or wash
SARS-COV-2 = assay: Virucidal assay, 2 minutes contact, end-point titer (CCID50) on Vero 76 cells
[5] = system: Candida albicans ATCC 10231; assay: EPA MLB SOP MB-35-00 stainless steel carrier disinfection with ILPS (Example 5); type: cell-based
Candida auris AR-0381 = assay: as above; type: cell-based
COVID-19 = assay: Nebulized LA outpatient treatment of COVID-19 patients and close contacts (case studies); type: in vivo, human
Protocol: After informed consent of the risks and potential benefits, we nebulized 0.56 ml 11 mM LA every 4 hours to treat two COVID-19 patients. The initial treatment of the […] began after two days of symptoms and the […] began treatment after their first day symptoms. Treatment observations of these two cohabiting patients occurred in their home to alter the likely course of clinical deterioration given their co-morbidities.
They were treated with 0.56 ml 11 mM nebulized LA every 4 hours, around the clock for 7 days. Oxygen saturation levels were recorded by the patient using a pulse oximeter. The initial and final evaluation was conducted as a home visit. All other evaluations were conducted by telephone. The treatment timeline starts the day after the initial home visit. • Day 1: they reported a total loss of taste and smell and mild chest pain. They also reported absence of dyspnea early that day and improved cough. Their oxygen saturation measured 98% (up from 94%). • Day 2: they reported intermittent taste and smell through day 4. Their chest pain resolved. They also reported infrequent loose bowel movements which improved and resolved over the following 3 days. They described no dyspnea. Their oxygen saturation measured 97%. • Day 3: they reported a return of mild dyspnea. Their oxygen saturation measured 95%. • Day 4: they reported dyspnea improvement. Their oxygen saturation measured between 95-98%. • Day 5: they reported that their sense of taste and smell was close to normal. They also reported that their cough had resolved and they had minimal dyspnea. Their oxygen saturation measured 97%. • Day 6: no reported symptoms. Their oxygen saturation measured 97%. • Day 7: no reported symptoms. Their oxygen saturation measured 98%.
After informed consent of the risks and potential benefits, we nebulized 0.56 ml 11 mM LA every 4 hours around the clock for 7 days. […] […] initial oxygen saturation measured 96%.
Oxygen saturation levels were recorded by the patient using a pulse oximeter. The initial and final evaluation was conducted as a home visit. All other evaluations were conducted by telephone. The treatment timeline starts the day after the initial home visit. • Day 1: they reported loss of taste and smell and fatigue. Their wheezing had improved. They reported no dyspnea. Oxygen saturation measured 95%. • Day 2: they reported mild wheezing and dyspnea. Their oxygen saturation measured 94%. An additional treatment of an Albuterol nebulizer and Methylprednisolone Dosepak was started for their asthma exacerbation. When starting nebulized Albuterol, this patient inadvertently discontinued the nebulized LA because they misunderstood instructions. This cessation of nebulized LA was not reported to the treating physician until Day 4. • Day 3: they reported improved loss of taste and smell and cough. Dyspnea worsened. Oxygen saturation measured 98% • Day 4: they reported that the loss of taste and smell improved. They also reported mild wheezing and cough. Oxygen saturation measured 95%. The patient reported the Albuterol nebulizer aggravated dyspnea symptoms. Because of their complaint, the Albuterol nebulizer was discontinued. Nebulized LA treatment was started again. • Day 5: they reported no loss of taste and smell. Minimal cough, wheeze, and dyspnea. Oxygen saturation measured 96% • Day 6: no reported symptoms. Oxygen saturation measured 98%. • Day 7: no reported symptoms. Oxygen saturation measured 98%.
Four lab confirmed COVID-19 cases, 2 probable cases, and 2 close contacts of confirmed COVID-19 cases were nebulized 0.56 ml 11 mM LA (Table 2). Treatment with LA was started after patients were assessed by their primary physician. Patients presented at different points in their COVID-19 infection. Onset of treatment ranged from asymptomatic to 9 days into the symptom course. Two close contacts with cases were treated. They were asymptomatic. Two close contacts with COVID-19 cases were also nebulized using 0.56 ml 11 mM LA every 4 hours. […]

[6] = Concentration 11.3% of 12% ICLS, 2 minutes, 22±2° C., Table 4
[7] = Concentration 22.5% of 12% ICLS, 2 minutes, 22±2° C., Table 4
[8] = Concentration 45% of 12% ICLS, 2 minutes, 22±2° C., Table 4
[9] = Concentration 90% of 12% ICLS, 2 minutes, 22±2° C., Table 4
[10] = second experiment, Concentration 0.25% of 12% ICLS, 2 minutes, Table 5
[11] = second experiment, Concentration 0.5% of 12% ICLS, 2 minutes, Table 5
[12] = second experiment, Concentration 1% of 12% ICLS, 2 minutes, Table 5
[13] = second experiment, Concentration 11.3% of 12% ICLS, 2 minutes, 22±2° C., Table 5
[14] = second experiment, LA 1% (4.4 mM), 2 minutes, Tables 8 and 9

Protocol for Candida auris (AR-0381): as §1, §2, §3, §4

potassium salt of isomerized linoleic acid [ILCS]
log kill rate (Candida auris (AR-0381); 0.42 M, 1 min): greater than 5 log | log kill rates (Candida auris (AR-0381); 10-min test, the longest time allowed per the SOP): greater than 5 log | solubility [1]: remain soluble | log kill rate [2]: greater than 5 log | toxicity to cells in titer plates (Vero 76 cells; 11.3% sample, 1/10 dilution): Full toxicity | toxicity to cells in titer plates (Vero 76 cells; 22.5%-90% samples, 1/10 and 1/100 dilutions): Full toxicity | reduction in microbial growth (microbial growth): 8-10 log reduction | acne [3]: clinical remission of acne | symptoms associated with viral illnesses [4]: reduced symptoms | reduction of virus vs virus controls (SARS-COV-2): > 99% | reduction of virus vs virus controls (SARS-COV-2; 1% (4.4 mM), 2 minutes, second experiment, titer reduced to 1.7 log CCID50 per 0.1 mL): 99% | reduction of virus vs virus controls (SARS-COV-2; 22.5%-90%, 2 minutes, first experiment, below limit of detection 2.7 log CCID50 per 0.1 mL): > 80% | LRV (log reduction value) (SARS-COV-2; [6]): >1.8 | Virus Titer (SARS-COV-2; [6]): <1.7 Log10 CCID50 of virus per 0.1 mL | LRV (log reduction value) (SARS-COV-2; [7]): >0.8 | Virus Titer (SARS-COV-2; [7]): <2.7 Log10 CCID50 of virus per 0.1 mL | LRV (log reduction value) (SARS-COV-2; [8]): >0.8 | Virus Titer (SARS-COV-2; [8]): <2.7 Log10 CCID50 of virus per 0.1 mL | LRV (log reduction value) (SARS-COV-2; [9]): >0.8 | Virus Titer (SARS-COV-2; [9]): <2.7 Log10 CCID50 of virus per 0.1 mL | kill-rate of COVID-19 (SARS-Cov-2) in vitro (SARS-COV-2; LA 4.4-50.2 mM, 2 minutes): 99% | LRV (log reduction value) (SARS-COV-2; [10]): 0.4 | Virus Titer (SARS-COV-2; [10]): 3.3 Log10 CCID50 of virus per 0.1 mL | LRV (log reduction value) (SARS-COV-2; [11]): 0.2 | Virus Titer (SARS-COV-2; [11]): 3.5 Log10 CCID50 of virus per 0.1 mL | LRV (log reduction value) (SARS-COV-2; [12]): 2.0 | Virus Titer (SARS-COV-2; [12]): 1.7 Log10 CCID50 of virus per 0.1 mL | LRV (log reduction value) (SARS-COV-2; [13]): >2.0 | Virus Titer (SARS-COV-2; [13]): <1.7 Log10 CCID50 of virus per 0.1 mL | LRV (log reduction value) (SARS-COV-2; [14]): >2.0 | Virus Titer (SARS-COV-2; [14]): <1.7 Log10 CCID50of virus per 0.1 mL | growth on exposed carrier ([5]; 1 minute exposure to ILPS, only exposure time of 8 to 1 minutes with growth): 158 CFU | kill ([5]; 2 minutes exposure/immersion, carriers with 6-8 log yeast): 100% | colonies recovered from treated surfaces ([5]; undiluted ILPS, 10 minutes contact time, PBS controls 5.9 to 7.2 log10 CFU): no Candida albicans colonies | kill (Candida auris AR-0381; 2-minute immersion, carriers inoculated with 6-8 log yeast): 100% | colonies recovered from treated carries (Candida auris AR-0381; undiluted ILPS, 10 minutes, seven carries, untreated 7.1-7.2 log10 CFU): no colonies | COVID-19 Complications (COVID-19; Cases 1): none | Total Duration of Symptoms (COVID-19; Cases 1, 0 days of symptoms before treatment): 0 days | COVID-19 Complications (COVID-19; Cases 2): none | Total Duration of Symptoms (COVID-19; Cases 2, 2 days of symptoms before treatment): 7 days | Total Duration of Symptoms (COVID-19; Cases 3, 4 days of symptoms before treatment): 16 days | Total Duration of Symptoms (COVID-19; Cases 4, 9 days of symptoms before treatment): 23 days | COVID-19 Complications (COVID-19; Close Contacts 1): none | Total Duration of Symptoms (COVID-19; Close Contacts 1, asymptomatic at treatment): 0 days | COVID-19 Complications (COVID-19; Close Contacts 2): none | Total Duration of Symptoms (COVID-19; Close Contacts 2, asymptomatic at treatment): 0 days | COVID-19 Complications (COVID-19; Probable Cases 1): Steroid for asthma | Total Duration of Symptoms (COVID-19; Probable Cases 1, 1 day of symptoms before treatment): 6 days | COVID-19 Complications (COVID-19; Probable Cases 2): none | Total Duration of Symptoms (COVID-19; Probable Cases 2, 3 days of symptoms before treatment): 10 days | side effects to nebulized LA (COVID-19; eight patients of Example 7, nebulized 0.56 ml 11 mM LA, listed as LA): no side effects; also recorded: None of the eight patients reported any side effects | oxygen saturation (COVID-19; husband, treatment Day 1 (94% before treatment)): 98% | oxygen saturation (COVID-19; husband, treatment Day 2): 97% | oxygen saturation (COVID-19; husband, treatment Day 3): 95% | oxygen saturation (COVID-19; husband, treatment Day 4): 95-98% | oxygen saturation (COVID-19; husband, treatment Day 5): 97% | oxygen saturation (COVID-19; husband, treatment Day 6): 97% | oxygen saturation (COVID-19; husband, treatment Day 7): 98% | prevention of symptoms in close contacts (COVID-19; two asymptomatic close contacts of COVID-19 cases): completely effective | side effects to nebulized LA (COVID-19; two patients of Example 6, 0.56 ml 11 mM every 4 hours for 7 days): no side effects | oxygen saturation (COVID-19; wife, Day 2, Albuterol and Methylprednisolone started, LA inadvertently discontinued): 94% | oxygen saturation (COVID-19; wife, Day 3, nebulized LA discontinued, on Albuterol): 98% | oxygen saturation (COVID-19; wife, Day 4, nebulized LA started again): 95% | oxygen saturation (COVID-19; wife, treatment Day 1 (96% before treatment)): 95% | oxygen saturation (COVID-19; wife, treatment Day 5): 96% | oxygen saturation (COVID-19; wife, treatment Day 6): 98% | oxygen saturation (COVID-19; wife, treatment Day 7): 98%
